From PMC4763238, “Resveratrol induces autophagy by directly inhibiting mTOR through ATP competition” (Scientific Reports, 2016) come the findings set out here.

The target of the assay is T1, mTOR (Homo sapiens, UniProt P42345).
T1 construct: GST-tagged recombinant fragment mTOR, some regulatory domains deleted, intact kinase domain; also immunoprecipitated full-length HA-mTOR
Put plainly: in vitro kinase assay (GST-S6K or 4E-BP1 phosphorylation), with ATP competition and a resistant mutant. Format: biochemical.

T1 sequence (P42345 1360-2549): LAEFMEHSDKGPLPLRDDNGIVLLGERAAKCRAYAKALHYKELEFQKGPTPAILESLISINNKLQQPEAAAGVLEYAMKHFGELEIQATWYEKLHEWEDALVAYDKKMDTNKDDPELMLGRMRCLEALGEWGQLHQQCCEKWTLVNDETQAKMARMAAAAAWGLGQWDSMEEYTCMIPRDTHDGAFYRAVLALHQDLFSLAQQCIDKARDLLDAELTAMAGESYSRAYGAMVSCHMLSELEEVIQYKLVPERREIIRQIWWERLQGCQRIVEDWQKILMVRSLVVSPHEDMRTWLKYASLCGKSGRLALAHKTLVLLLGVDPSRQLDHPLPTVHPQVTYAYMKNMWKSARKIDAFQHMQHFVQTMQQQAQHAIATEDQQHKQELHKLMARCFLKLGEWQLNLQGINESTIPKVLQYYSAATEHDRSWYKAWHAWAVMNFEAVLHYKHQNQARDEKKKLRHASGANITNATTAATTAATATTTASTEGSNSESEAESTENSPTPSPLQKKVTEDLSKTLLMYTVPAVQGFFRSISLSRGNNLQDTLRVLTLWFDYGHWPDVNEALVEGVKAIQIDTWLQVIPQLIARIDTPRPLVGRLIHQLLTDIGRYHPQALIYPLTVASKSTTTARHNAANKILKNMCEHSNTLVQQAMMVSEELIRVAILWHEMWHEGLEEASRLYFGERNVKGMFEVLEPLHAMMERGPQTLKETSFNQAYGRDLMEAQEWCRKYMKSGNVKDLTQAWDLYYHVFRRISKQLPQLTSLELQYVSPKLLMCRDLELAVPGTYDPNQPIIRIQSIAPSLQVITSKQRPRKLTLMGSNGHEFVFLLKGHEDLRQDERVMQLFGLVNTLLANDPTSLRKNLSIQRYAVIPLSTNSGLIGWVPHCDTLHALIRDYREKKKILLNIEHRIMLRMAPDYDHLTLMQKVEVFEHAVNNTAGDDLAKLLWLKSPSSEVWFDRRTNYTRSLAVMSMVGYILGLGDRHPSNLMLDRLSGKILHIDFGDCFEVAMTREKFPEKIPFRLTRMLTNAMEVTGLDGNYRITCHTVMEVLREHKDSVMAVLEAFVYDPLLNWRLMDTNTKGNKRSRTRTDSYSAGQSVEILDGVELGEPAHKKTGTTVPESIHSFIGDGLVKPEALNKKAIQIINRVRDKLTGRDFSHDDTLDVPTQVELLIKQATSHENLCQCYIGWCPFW

Regarding `Oc1ccc(/C=C/c2cc(O)cc(O)c2)cc1` [resveratrol, 3,40,5-trihydroxy-trans-stilbene], the IC50 is ~10 µM.
